We go through four molecules from PMC4188605, “Biochemical and Pharmacological Characterization of the Human Lymphocyte Antigen B-Associated Transcript 5 (BAT5/ABHD16A)” (PLoS ONE, 2014).

For data set [1], the target named is T1, hABHD12 (Homo sapiens, UniProt Q8N2K0).
T1 construct: expressed in transfected cells; host or cells: HEK293
T1 sequence (Q8N2K0 1-398): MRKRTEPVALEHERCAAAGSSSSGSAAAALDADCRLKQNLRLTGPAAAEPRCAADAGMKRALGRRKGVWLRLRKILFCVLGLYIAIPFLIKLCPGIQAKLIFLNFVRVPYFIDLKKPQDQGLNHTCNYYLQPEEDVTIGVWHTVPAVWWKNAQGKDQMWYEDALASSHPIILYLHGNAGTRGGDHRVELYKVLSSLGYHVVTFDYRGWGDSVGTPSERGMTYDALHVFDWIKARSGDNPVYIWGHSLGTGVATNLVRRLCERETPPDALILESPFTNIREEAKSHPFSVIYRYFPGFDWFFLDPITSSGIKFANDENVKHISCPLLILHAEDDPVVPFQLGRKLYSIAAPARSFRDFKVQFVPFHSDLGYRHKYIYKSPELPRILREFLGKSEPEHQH
The data set is described as follows: Hydrolase activity assay, hABHD12-HEK lysates. Format: biochemical.

For data set [2], the target named is T2, hMAGL (Homo sapiens, UniProt Q99685).
T2 construct: expressed in transfected cells; host or cells: HEK
T2 sequence (Q99685 1-303): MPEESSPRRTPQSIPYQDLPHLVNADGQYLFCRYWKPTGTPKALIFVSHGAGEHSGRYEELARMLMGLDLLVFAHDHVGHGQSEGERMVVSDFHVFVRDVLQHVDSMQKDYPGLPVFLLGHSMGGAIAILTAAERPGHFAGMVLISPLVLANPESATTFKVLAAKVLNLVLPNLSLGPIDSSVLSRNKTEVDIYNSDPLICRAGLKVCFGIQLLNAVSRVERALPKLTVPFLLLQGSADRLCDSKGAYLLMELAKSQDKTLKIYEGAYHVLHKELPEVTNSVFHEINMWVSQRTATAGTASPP
Nature of the data set: Hydrolase activity assay, hMAGL-HEK lysates. Format: biochemical.

The target of another data set is T3, hFAAH (Homo sapiens, UniProt O00519).
T3 construct: expressed in transfected cells; host or cells: COS-7
T3 sequence (O00519 1-579): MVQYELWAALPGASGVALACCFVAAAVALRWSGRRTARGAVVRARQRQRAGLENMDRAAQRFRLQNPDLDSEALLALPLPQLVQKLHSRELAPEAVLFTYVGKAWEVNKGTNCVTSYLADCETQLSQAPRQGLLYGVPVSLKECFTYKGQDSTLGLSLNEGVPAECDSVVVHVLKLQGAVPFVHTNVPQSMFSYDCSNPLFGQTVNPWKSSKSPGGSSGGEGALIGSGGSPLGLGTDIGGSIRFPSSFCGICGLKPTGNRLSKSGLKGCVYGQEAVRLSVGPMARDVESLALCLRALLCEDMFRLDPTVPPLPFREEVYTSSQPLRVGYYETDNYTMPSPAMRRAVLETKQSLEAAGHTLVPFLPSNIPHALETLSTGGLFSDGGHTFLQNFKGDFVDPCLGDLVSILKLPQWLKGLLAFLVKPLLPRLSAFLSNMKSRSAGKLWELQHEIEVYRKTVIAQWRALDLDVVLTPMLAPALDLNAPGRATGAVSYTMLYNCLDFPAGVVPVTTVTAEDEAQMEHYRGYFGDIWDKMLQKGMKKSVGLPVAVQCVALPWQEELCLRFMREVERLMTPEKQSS
Nature of the data set: FAAH activity assay, hFAAH-COS7 membranes (3H-anandamide). It is filed as biochemical.

For the next data set, the target named is T4, hABHD6 (Homo sapiens, UniProt Q9BV23).
T4 construct: expressed in transfected cells; host or cells: HEK293
T4 sequence (Q9BV23 1-337): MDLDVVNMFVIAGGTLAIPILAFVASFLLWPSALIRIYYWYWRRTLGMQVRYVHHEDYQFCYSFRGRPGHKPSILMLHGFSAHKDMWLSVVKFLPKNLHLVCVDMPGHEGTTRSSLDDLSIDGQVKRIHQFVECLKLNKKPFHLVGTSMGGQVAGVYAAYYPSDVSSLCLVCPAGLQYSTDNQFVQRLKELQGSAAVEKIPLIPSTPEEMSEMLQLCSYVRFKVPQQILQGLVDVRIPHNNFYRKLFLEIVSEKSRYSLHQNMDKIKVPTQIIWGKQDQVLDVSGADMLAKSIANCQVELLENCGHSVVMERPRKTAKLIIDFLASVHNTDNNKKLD
The data set is described as follows: Hydrolase activity assay, hABHD6-HEK lysates. Format: biochemical. The settings on record: IC50, hABHD6-HEK lysates.

Data set [3] has as its target T5, hBAT5 (Homo sapiens, UniProt O95870).
T5 sequence (O95870 1-558): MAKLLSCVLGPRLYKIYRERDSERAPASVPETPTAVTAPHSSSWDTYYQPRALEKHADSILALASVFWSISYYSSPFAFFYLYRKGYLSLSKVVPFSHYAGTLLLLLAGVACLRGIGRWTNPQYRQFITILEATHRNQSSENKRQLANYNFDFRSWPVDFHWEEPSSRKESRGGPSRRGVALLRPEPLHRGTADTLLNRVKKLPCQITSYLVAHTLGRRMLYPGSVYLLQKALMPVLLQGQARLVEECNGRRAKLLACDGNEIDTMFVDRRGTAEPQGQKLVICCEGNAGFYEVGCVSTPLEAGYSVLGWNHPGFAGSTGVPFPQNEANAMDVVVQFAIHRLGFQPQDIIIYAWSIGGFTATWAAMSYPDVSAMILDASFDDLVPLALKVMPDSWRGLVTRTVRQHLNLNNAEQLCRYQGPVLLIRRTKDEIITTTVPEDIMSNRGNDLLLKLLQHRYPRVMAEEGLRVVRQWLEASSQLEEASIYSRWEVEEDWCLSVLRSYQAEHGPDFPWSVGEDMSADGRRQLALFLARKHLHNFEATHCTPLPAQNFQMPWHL
Nature of the data set: hBAT5 substrate hydrolysis and Michaelis-Menten kinetics (glycerol assay, hBAT5-HEK293 lysates). The settings on record: with 0.5% BSA.

Data set [4] addresses T2, hMAGL. To be noted: 15d-PGJ2-G as substrate for hMAGL; cited from earlier work.
Data set [5] has as its target T1, hABHD12. Also on record: method as in PMID 22969151. To be noted: hABHD12-HEK lysates; cited from earlier work.
In another data set the target is T6, BAT5 (Mus musculus, UniProt Q9Z1Q2).
T6 sequence (Q9Z1Q2 1-558): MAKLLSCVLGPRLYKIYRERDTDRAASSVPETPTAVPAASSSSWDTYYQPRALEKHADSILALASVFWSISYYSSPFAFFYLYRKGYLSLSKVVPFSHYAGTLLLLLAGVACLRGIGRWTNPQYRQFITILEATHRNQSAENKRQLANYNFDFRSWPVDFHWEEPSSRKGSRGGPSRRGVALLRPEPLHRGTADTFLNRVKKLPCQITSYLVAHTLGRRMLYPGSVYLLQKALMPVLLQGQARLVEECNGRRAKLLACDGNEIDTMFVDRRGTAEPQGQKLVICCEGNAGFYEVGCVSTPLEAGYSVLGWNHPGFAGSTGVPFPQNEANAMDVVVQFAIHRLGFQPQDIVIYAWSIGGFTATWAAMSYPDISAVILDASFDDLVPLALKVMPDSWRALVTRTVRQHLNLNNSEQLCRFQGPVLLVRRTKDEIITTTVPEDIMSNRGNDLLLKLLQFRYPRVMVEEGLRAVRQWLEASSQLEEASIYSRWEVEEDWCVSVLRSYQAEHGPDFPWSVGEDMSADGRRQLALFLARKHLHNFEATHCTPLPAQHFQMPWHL
The data set is described as follows: Competitive ABPP, mouse brain membrane proteome: BAT5 band. The settings on record: reference inhibitor at the indicated concentration, used to identify the band (refs 4, 18).

In data set [6] the target is T5, hBAT5. The data set is described as follows: Inhibition of 1-LG hydrolysis in hBAT5-HEK293 lysates (fluorescent glycerol assay). Also on record: host or cells: HEK293. Format: biochemical. The settings on record: 1-LG 25 µM; 30 min inhibitor pretreatment; monitored 90 min; mean, n=3; read-out: IC50.
For the next data set, the target named is T7, ABHD6 (Mus musculus, UniProt Q8R2Y0).
T7 sequence (Q8R2Y0 1-336): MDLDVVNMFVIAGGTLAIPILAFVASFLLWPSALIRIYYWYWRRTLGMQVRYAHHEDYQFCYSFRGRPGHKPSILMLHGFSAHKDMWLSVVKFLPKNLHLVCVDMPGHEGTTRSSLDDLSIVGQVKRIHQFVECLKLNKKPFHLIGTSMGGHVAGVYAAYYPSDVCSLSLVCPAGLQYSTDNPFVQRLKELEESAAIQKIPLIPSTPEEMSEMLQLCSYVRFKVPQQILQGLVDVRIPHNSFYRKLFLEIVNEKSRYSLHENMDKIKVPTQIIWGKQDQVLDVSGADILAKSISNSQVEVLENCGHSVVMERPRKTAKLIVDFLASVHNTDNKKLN
The data set is described as follows: Competitive ABPP, mouse brain membrane proteome: ABHD6 band.

Substrate in data set [7]: CCCCC/C=C\C/C=C\CCCCCCCCOCC(O)CO
The data set is described as follows: cells, lysate or membranes named. To be noted: other: substrate of hBAT5, time-point 90 min, n=3.

Where “and” joins values, the source holds several entries; their conditions need not be identical. Identical values can stand only once. Like-named read-outs stand apart in the source and are kept apart here.

Regarding `CCC(C)C(O)C(C)C(=O)C(C)C=C(C)CC(C)C1OC(=O)C1C` (stereo not shown) [Ebelactone A, ebelactone A], on hABHD12 [1], the remaining activity (commonly what remains of the control signal, in per cent) at 10 µM was 100% and the “sensitivity of hABHD12 (in words)” value is “resistant”. On hMAGL [2], the remaining activity at 10 µM was determined as 90.8% and the “sensitivity of hMAGL (in words)” value is “resistant”. Also, at hFAAH, the remaining activity at 10 µM was 87.3% and the “sensitivity of hFAAH (in words)” value is “resistant”. In addition, the IC50 – broadly, the concentration that gives 50% inhibition – against hABHD6 was 870 nM.

With `CCCCC/C=C/C=C1/C(=O)C=CC1C/C=C\CCCC(=O)OC(CO)CO` (stereo not shown) [15d-PGJ2-G, 15-deoxy-Δ^12,14-prostaglandin J2-2-glycerol ester], the “hydrolysis by hBAT5 (substrate utilization, in words)” value on hBAT5 [3] (25 µM substrate, 60 min) is “readily hydrolyzed”. The Km – broadly, the substrate concentration at which the rate is half of its maximum – was 20.9 µM and ~21 µM at hBAT5 [3] (substrate of hBAT5, time-point 90 min, n=3); roughly 15 µM on hMAGL [4]. The Vmax (as a rule, the rate approached at saturating substrate) at hBAT5 [3] (substrate of hBAT5, total lysate protein, n=3) is 3.0 ± 0.2 nmol/mg/min.

With `CCCCCCCCCCC[C@@H](C[C@@H]1OC(=O)[C@H]1CCCCCC)OC(=O)[C@H](CC(C)C)NC=O` [THL, tetrahydrolipstatin], the IC50 on hABHD12 [5] was 193 nM; at hBAT5 [6] it was 170 nM. On BAT5, the “inhibition of probe labeling of BAT5 by reference inhibitor” value was “inhibited”. Further, the remaining activity at 10 µM at hMAGL [2] (at 10^−5 M, read-out: Remaining activity) turned out to be 88.1%; on hFAAH, 100%. For the same molecule, the “inhibition of probe labeling of ABHD6 by reference inhibitor” value at ABHD6 is “inhibited”.

B1: hBAT5 (Homo sapiens) (protein)
chain: T5 sequence (O95870 1-558)
Regarding B1, the Km in data set [7] (with 0.5% BSA) was 137.8 ± 30.6 µM and 140 µM; in data set [7] (without BSA), 6.9 ± 1.7 µM.
